Data set [1] deals with Egl nine homolog 1 (Homo sapiens, UniProt Q9GZT9). Nature of the data set: Inhibition of PHD2 (unknown origin) using [1-14C]alphaKG as substrate assessed as substrate decarboxylation by measuring 14CO2 production incubated for 2 hrs by microplate reader analysis.
Data set [2] addresses Voltage-gated inwardly rectifying potassium channel KCNH2 (Homo sapiens, UniProt Q12809). Description: Inhibition of human ERG upto 100 uM. The format is toxicity.

Chain of Egl nine homolog 1 (Q9GZT9 whole entry): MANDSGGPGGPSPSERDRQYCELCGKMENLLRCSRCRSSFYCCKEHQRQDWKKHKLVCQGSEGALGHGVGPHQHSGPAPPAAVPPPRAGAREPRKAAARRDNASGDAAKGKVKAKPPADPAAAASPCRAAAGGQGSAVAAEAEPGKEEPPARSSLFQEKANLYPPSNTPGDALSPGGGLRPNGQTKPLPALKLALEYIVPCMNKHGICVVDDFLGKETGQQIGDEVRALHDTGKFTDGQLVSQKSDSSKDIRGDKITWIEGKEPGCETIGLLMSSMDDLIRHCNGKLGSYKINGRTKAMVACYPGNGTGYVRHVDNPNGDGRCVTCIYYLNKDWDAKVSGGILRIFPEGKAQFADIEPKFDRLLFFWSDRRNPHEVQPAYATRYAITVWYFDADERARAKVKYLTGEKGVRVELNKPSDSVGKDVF
Chain of Voltage-gated inwardly rectifying potassium channel KCNH2 (Q12809 whole entry): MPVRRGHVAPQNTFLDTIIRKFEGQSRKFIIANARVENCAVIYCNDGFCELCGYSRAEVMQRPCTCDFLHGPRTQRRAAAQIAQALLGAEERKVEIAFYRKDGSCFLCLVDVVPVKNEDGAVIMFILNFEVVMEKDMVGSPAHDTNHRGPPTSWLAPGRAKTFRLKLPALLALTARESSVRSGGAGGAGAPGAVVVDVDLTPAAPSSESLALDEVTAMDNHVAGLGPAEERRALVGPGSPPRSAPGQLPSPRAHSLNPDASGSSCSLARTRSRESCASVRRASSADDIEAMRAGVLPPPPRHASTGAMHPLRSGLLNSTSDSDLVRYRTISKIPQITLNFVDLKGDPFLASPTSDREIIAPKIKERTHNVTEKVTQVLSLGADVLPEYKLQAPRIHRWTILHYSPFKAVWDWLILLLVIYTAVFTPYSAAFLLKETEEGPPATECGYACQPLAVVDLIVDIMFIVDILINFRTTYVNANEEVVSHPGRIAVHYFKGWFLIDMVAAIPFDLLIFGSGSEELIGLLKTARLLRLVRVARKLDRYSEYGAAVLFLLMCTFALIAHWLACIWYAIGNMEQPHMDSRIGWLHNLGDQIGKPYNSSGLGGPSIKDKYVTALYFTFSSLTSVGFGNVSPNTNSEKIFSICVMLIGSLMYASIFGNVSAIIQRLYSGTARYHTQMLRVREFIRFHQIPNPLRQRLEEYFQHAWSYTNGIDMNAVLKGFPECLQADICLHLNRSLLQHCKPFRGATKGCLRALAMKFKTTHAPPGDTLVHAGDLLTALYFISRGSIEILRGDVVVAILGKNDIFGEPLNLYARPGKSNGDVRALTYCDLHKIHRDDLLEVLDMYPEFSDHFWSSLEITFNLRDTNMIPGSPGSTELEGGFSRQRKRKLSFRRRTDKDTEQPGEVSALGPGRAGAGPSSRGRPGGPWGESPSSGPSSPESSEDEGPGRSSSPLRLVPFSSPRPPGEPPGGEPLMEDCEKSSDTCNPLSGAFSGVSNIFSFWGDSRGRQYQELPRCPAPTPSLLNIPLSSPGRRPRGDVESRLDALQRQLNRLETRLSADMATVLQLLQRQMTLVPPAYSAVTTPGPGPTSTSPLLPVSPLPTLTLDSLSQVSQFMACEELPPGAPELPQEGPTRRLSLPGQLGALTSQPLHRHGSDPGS

Regarding `O=C(NCc1ccncc1)c1ncc2c(=O)n(Cc3ccccc3)ccc2c1O`, the IC50 in data set [1] is 200 nM. For the compound `O=C(NCc1ccnnc1)c1ncc2c(=O)n(C3CCCCC3)ccc2c1O`, the “inhibition (INH)” value in data set [2] is listed as “Not_active”.

Source of the values: ChEMBL document CHEMBL6115025, “Discovery of Novel, Potent, Orally Bioavailable and Efficacious, Hypoxia-Inducible Factor Prolyl Hydroxylase Inhibitors for Hematopoietic Stem Cell Mobilization” (J Med Chem, 2025).
